# Measurements published in US20260042764A1, “COMPOSITIONS AND METHODS FOR INHIBITION OF KRAS” (TheRas, Inc., priority 2022, published 2026).
# Key:
# [1] = target: T1, Avi-KRAS WT (2-169) GTP/RAF1 RBD-3xFLAG (51-131) (Homo sapiens, UniProt P01116); experiment: Raf1-KRAS WT-GTP disruption HTRF assay (Biological Example 3); type: binding; settings: KRAS WT, GTP-loaded
# T1 construct: Avi-KRAS WT (2-169)
# How it was run: (§1)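 Each KRAS-GTP/RAF1 RBD complex at 50 nM, with 75 nM 3xFLAG-RAF1 RBD (51-131)-Avi, in 50 mM Tris pH 7.5, 100 mM NaCl, 5 mM MgCl2, 0.1% BSA, 0.01% Tween 20, 10% DMSO. Compounds titrated from 30 μM, 10-point 3x series; 1 h at room temperature with shaking. HTRF read, activity as percent of DMSO.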
# SW620 cells (KRAS G12V) = experiment: Cell-based pERK HTRF assay in SW620 cell (Biological Example 4)
# How it was run: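 SW620 seeded in RPMI/10% FBS, next day dosed 4 h (top 1 μM, half-log, 9 pts, 0.25% DMSO). Lysed, pERK by d2/Eu cryptate HTRF, 4–24 h RT, 615 nm read.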
# [2] = target: T2, Avi-KRAS G12V (2-169) GTP/RAF1 RBD-3xFLAG (51-131) (Homo sapiens, UniProt P01116, G12V); experiment: Raf1-KRAS G12V-GTP disruption HTRF assay (Biological Example 3); type: binding; settings: KRAS G12V, GTP-loaded
# T2 construct: Avi-KRAS G12V (2-169)
# T2 sequence (P01116 2-169 isoform P01116-2 G12V): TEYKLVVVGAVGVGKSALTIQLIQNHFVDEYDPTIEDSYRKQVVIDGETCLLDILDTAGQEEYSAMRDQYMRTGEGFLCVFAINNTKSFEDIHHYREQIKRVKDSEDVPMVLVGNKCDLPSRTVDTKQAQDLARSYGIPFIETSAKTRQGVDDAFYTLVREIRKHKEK
# How it was run: as §1
# [3] = target: T3, Avi-KRAS G12D (1-169) GppNHp/RAF1 RBD-3xFLAG (52-151) (Homo sapiens, UniProt P01116, G12D); experiment: Raf1-KRAS G12D-GppNHP disruption HTRF assay (Biological Example 1); type: binding; settings: KRAS G12D-GppNHp/RAF1 RBD HTRF
# T3 construct: Avi-KRAS G12D (1-169)
# T3 sequence (P01116 1-169 isoform P01116-2 G12D): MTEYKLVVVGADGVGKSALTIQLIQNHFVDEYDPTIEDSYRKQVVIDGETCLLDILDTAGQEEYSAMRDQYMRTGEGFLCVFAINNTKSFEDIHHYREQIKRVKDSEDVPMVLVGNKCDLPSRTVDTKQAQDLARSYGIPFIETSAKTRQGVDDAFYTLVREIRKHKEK
# How it was run: (§2)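 Read-out is HTRF signal of the KRAS–RAF1 RBD complex, reported as percentage of activity relative to DMSO (100%). Protein mix and detection reagents each incubated 1 h at room temperature with 700 rpm shaking. Buffer: 50 mM Tris pH 7.5, 100 mM NaCl, 5 mM MgCl2, 0.1% BSA, 0.01% Tween, 10% DMSO.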
# [4] = target: T4, Avi-KRAS WT (1-169) GppNHp/RAF1 RBD-3xFLAG (52-151) (Homo sapiens, UniProt P01116); experiment: Raf1-KRAS WT-GppNHP disruption HTRF assay (Biological Example 1); type: binding; settings: KRAS WT-GppNHp/RAF1 RBD HTRF
# T4 construct: Avi-KRAS WT (1-169)
# T4 sequence (P01116 1-169 isoform P01116-2): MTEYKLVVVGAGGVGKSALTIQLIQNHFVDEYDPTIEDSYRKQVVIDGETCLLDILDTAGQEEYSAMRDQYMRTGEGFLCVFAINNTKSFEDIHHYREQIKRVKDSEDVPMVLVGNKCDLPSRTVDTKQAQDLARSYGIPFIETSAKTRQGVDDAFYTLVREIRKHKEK
# How it was run: as §2
# [5] = target: T5, Avi-KRAS G12V (1-169) GppNHp/RAF1 RBD-3xFLAG (52-151) (Homo sapiens, UniProt P01116, G12V); experiment: Raf1-KRAS G12V-GppNHP disruption HTRF assay (Biological Example 1); type: binding; settings: KRAS G12V-GppNHp/RAF1 RBD HTRF
# T5 construct: Avi-KRAS G12V (1-169)
# T5 sequence (P01116 1-169 isoform P01116-2 G12V): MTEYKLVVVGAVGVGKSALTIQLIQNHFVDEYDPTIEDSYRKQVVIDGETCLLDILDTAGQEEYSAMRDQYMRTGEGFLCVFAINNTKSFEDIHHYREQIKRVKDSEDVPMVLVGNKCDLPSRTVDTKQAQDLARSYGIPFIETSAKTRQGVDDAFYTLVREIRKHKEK
# How it was run: as §2
# [6] = Homo sapiens, SW-620, SW620 (KRAS G12V) cells
# [7] = Homo sapiens, SW-620, SW620 (KRAS G12V) cells, pERK HTRF
# [8] = SW620 (KRAS G12V) cells, pERK HTRF
# T1 sequence (P01116 2-169 isoform P01116-2): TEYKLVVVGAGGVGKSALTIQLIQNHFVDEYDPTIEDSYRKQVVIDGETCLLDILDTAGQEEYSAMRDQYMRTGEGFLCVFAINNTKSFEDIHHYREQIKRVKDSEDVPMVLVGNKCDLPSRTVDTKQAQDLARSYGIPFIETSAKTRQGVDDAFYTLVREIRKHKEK
Structure (SMILES),IC50 [1],IC50 (SW620 cells (KRAS G12V); [6]),IC50 [2],IC50 [3],IC50 (SW620 cells (KRAS G12V); [7]),IC50 [4],IC50 [5],IC50 (SW620 cells (KRAS G12V); [8])
"CCN(c1nc(OC[C@@]23CCCN2C[C@H](F)C3)nc2c(F)c(-c3ccc(F)c4sc(N)c(C#N)c34)c(C(F)(F)F)cc12)[C@H]1CCN(C(=O)N(C)C)C1 (atropisomer, axis not shown) [Compound 540, (3S)-3-[[7-(2-amino-3-cyano-7-fluoro-benzothiophen-4-yl)-8-fluoro-2-[[(2R,8S)-2-fluoro-1,2,3,5,6,7-hexahydropyrrolizin-8-yl]methoxy]-6-(trifluoromethyl)quinazolin-4-yl]-ethyl-amino]-N,N-dimethyl-pyrrolidine-1-carboxamide]",100 to 1000 nM,< 100 nM,≤ 100 nM,–,–,–,–,–
CCN(c1nc(OC[C@@]23CCCN2C[C@H](F)C3)nc2c(F)c(-c3ccc(F)c4sc(N)c(C#N)c34)c(C(F)(F)F)cc12)[C@@H]1CC(=O)N(C)C1 [Compound 520],100 to 1000 nM,< 100 nM,100 to 1000 nM,100 to 1000 nM,< 100 nM,100 to 1000 nM,100 to 1000 nM,–
"CCN(c1nc(OC[C@@]23CCCN2C[C@H](F)C3)nc2c(F)c(-c3ccc(F)c4sc(N)c(C#N)c34)c(C(F)(F)F)cc12)[C@H]1C[C@H]2CN(C)C(=O)N2C1 (atropisomer, axis not shown; (aS)) [Compound 543, 2-amino-4-((S)-4-(ethyl((6S,7aS)-2-methyl-3-oxohexahydro-1H-pyrrolo[1,2-c]imidazol-6-yl)amino)-8-fluoro-2-(((2R,7aS)-2-fluorotetrahydro-1H-pyrrolizin-7a(5H)-yl)methoxy)-6-(trifluoromethyl)quinazolin-7-yl)-7-fluorobenzo[b]thiophene-3-carbonitrile]",≤ 100 nM,< 100 nM,≤ 100 nM,< 100 nM,< 100 nM,< 100 nM,< 100 nM,–
"CN(C)C(=O)[C@@H]1CC[C@@H](N(C)c2nc(OC[C@@]34CCCN3C[C@H](F)C4)nc3c(F)c(-c4ccc(F)c5sc(N)c(C#N)c45)c(C(F)(F)F)cc23)C1 (atropisomer, axis not shown) [Compound 512]",100 to 1000 nM,< 100 nM,1000 to 10000 nM,100 to 1000 nM,< 100 nM,100 to 1000 nM,100 to 1000 nM,–
CCN(c1nc(OC[C@@]23CCCN2C[C@H](F)C3)nc2c(F)c(-c3ccc(F)c4sc(N)c(C#N)c34)c(C(F)(F)F)cc12)[C@@H]1CC(=O)N(C2CC2)C1 [Compound 537],100 to 1000 nM,< 100 nM,≤ 100 nM,< 100 nM,< 100 nM,< 100 nM,< 100 nM,–
"CCN(c1nc(OC[C@@]23CCCN2C[C@H](F)C3)nc2c(F)c(-c3ccc(F)c4sc(N)c(C#N)c34)c(C(F)(F)F)cc12)[C@H]1C[C@H](C)N(C(=O)COC)C1 (atropisomer, axis not shown) [Compound 538]",100 to 1000 nM,< 100 nM,≤ 100 nM,< 100 nM,< 100 nM,< 100 nM,< 100 nM,–
CN(C)C(=O)c1nn2c(c1Cl)CN(c1nc(OC[C@@]34CCCN3C[C@H](F)C4)nc3c(F)c(-c4ccc(F)c5sc(N)c(C#N)c45)c(C(F)(F)F)cc13)CC2 [Compound 517],100 to 1000 nM,< 100 nM,100 to 1000 nM,< 100 nM,< 100 nM,100 to 1000 nM,< 100 nM,–
"CCN(c1nc(OC[C@@]23CCCN2C[C@H](F)C3)nc2c(F)c(-c3ccc(F)c4sc(N)c(C#N)c34)c(C(F)(F)F)cc12)[C@@H]1C[C@H]2CCC(=O)N2C1 (atropisomer, axis not shown) [Compound 532]",100 to 1000 nM,< 100 nM,100 to 1000 nM,100 to 1000 nM,< 100 nM,100 to 1000 nM,100 to 1000 nM,–
"CCN(c1nc(OC[C@@]23CCCN2C[C@H](F)C3)nc2c(F)c(-c3ccc(F)c4sc(N)c(C#N)c34)c(C(F)(F)F)cc12)[C@H]1C[C@H]2COC(=O)N2C1 (atropisomer, axis not shown; (aS)) [Compound 518, 2-amino-4-((S)-4-(ethyl((6S,7aS)-3-oxotetrahydro-1H,3H-pyrrolo[1,2-c]oxazol-6-yl)amino)-8-fluoro-2-(((2R,7aS)-2-fluorotetrahydro-1H-pyrrolizin-7a(5H)-yl)methoxy)-6-(trifluoromethyl)quinazolin-7-yl)-7-fluorobenzo[b]thiophene-3-carbonitrile]",≤ 100 nM,< 100 nM,≤ 100 nM,< 100 nM,< 100 nM,< 100 nM,< 100 nM,–
CCOC(=O)N1CC[C@H](N(CC)c2nc(OC[C@@]34CCCN3C[C@H](F)C4)nc3c(F)c(-c4ccc(F)c5sc(N)c(C#N)c45)c(C(F)(F)F)cc23)C1 [Compound 467],–,–,–,< 100 nM,< 100 nM,100 to 1000 nM,< 100 nM,–
"CCC(=O)N1CC[C@@H](N(CC)c2nc(OC[C@@]34CCCN3C[C@H](F)C4)nc3c(F)c(-c4ccc(F)c5sc(N)c(C#N)c45)c(C(F)(F)F)cc23)[C@H]1C (atropisomer, axis not shown) [Compound 523]",≤ 100 nM,< 100 nM,≤ 100 nM,< 100 nM,–,< 100 nM,< 100 nM,< 100 nM
N#Cc1c(N)sc2c(F)ccc(-c3c(C(F)(F)F)cc4c(N5CCn6nc(N7CCOCC7)cc6C5)nc(OC[C@@]56CCCN5C[C@H](F)C6)nc4c3F)c12 [Compound 485],–,–,–,1000 to 10000 nM,< 100 nM,1000 to 10000 nM,1000 to 10000 nM,–
CCN(c1nc(OC[C@@]23CCCN2C[C@H](F)C3)nc2c(F)c(-c3ccc(F)c4sc(N)c(C#N)c34)c(C(F)(F)F)cc12)[C@@H]1C[C@@H]2CCC(=O)N2C1 [Compound 511],100 to 1000 nM,< 100 nM,1000 to 10000 nM,100 to 1000 nM,< 100 nM,100 to 1000 nM,100 to 1000 nM,–
"CCN(c1nc(OC[C@@]23CCCN2C[C@H](F)C3)nc2c(F)c(-c3ccc(F)c4sc(N)c(C#N)c34)c(C(F)(F)F)cc12)[C@H]1CCN(C(=O)C(C)C)C1 (atropisomer, axis not shown) [Compound 468]",–,–,–,> 10000 nM,–,> 10000 nM,> 10000 nM,> 1000 nM
"CCN(c1nc(OC[C@@]23CCCN2C[C@H](F)C3)nc2c(F)c(-c3ccc(F)c4sc(N)c(C#N)c34)c(C(F)(F)F)cc12)[C@H]1CCN(C(=O)C(C)C)C1 (single isomer, unassigned) [Compound 469]",≤ 100 nM,< 100 nM,≤ 100 nM,< 100 nM,< 100 nM,< 100 nM,< 100 nM,–
CCN(c1nc(OC[C@@]23CCCN2C[C@H](F)C3)nc2c(F)c(-c3ccc(F)c4sc(N)c(C#N)c34)c(C(F)(F)F)cc12)C1C[C@@H](C)N(C(=O)C2CC2)C1 (stereo partly drawn) [Compound 516],100 to 1000 nM,< 100 nM,100 to 1000 nM,< 100 nM,< 100 nM,100 to 1000 nM,100 to 1000 nM,–
CCN(c1nc(OC[C@@]23CCCN2C[C@H](F)C3)nc2c(F)c(-c3ccc(F)c4sc(N)c(C#N)c34)c(C(F)(F)F)cc12)[C@H]1C[C@H](C)N(C(=O)C2CC2)C1 [Compound 470],–,–,–,< 100 nM,< 100 nM,< 100 nM,< 100 nM,–
"CCN(c1nc(OC[C@@]23CCCN2C[C@H](F)C3)nc2c(F)c(-c3ccc(F)c4sc(N)c(C#N)c34)c(C(F)(F)F)cc12)[C@H]1CCS(=O)(=O)C1 (atropisomer, axis not shown) [Compound 492]",–,–,–,< 100 nM,–,< 100 nM,100 to 1000 nM,< 100 nM
Cc1cc2n(n1)CCN(c1nc(OCC34CCCN3CC(F)C4)nc3c(F)c(-c4ccc(F)c5sc(N)c(C#N)c45)c(C(F)(F)F)cc13)C2 (stereo not drawn) [Compound 484],–,–,–,1000 to 10000 nM,< 100 nM,1000 to 10000 nM,1000 to 10000 nM,–
